Test results published in patent publication US6034064A, “Peptides and therapeutic agent for autoimmune diseases containing the same” (Hoechst Pharmaceuticals & Chemicals K.K., priority 1995, dated 2000).
No end group written: not given here.

Assays:
[1] = test system: anti-KLH antibody production; assay: Suppressive effect on anti-KLH antibody production in mice (ELISA of serum IgG); assay type: in vivo, mouse (Balb/c); conditions: Example 7
Protocol: Day 5 and day 3 prior to the antigen administration, 100 μg of each Peptide (I) to (VI) of the present invention composed of 9 amino acid residues indicated by Sequence ID No. 1 in the Sequence Listing were dissolved in 200 μl of physiological saline. The resulting solution was subcutaneously administered to 9-week-old Balb/c mice. As a control, a non-administered group to which the same amount of physiological saline was administered was employed. In 200 μl of physiological saline, 25 μg of KLH were dissolved as an antigen and the resulting solution was subcutaneously administered. The blood was collected on day 21 after antigen administration and an antibody titer was measured by the method which is described below.
KLH was diluted to 10 μg/ml with a phosphate buffered physiological saline (PBS). Fifty μl portions of the resulting solution were poured into a 96-well microplate and the plate was allowed to stand at 4iC overnight. After the microplate was washed three times with 0.05% Tween®-20-containing PBS (T-PBS), 200 μl portions of 0.5% casein tris-buffered physiological saline (casein TBS) were poured into wells, respectively. […] The microplate was washed three times with T-PBS and 50 μl portions of the mouse serum diluted to 1/200 with casein TBS were poured into the wells, followed by reaction for one hour (primary reaction).
The resulting microplate was washed three times with T-PBS, to which 50 μl portions of an anti-mouse IgG-peroxidase-labeled antibody (TAGO Co.) diluted to 1/4000 with casein TBS were poured. The reaction was effected at room temperature for one hour (secondary reaction). After the completion of the secondary reaction, the plate was washed three times again. Fifty μl portions of a substrate liquid/chromogen (chromogen substrate: Behringwerke AG) were poured into wells, respectively, followed by reaction at room temperature for 30 minutes. After the completion of the reaction, 0.5N diluted sulfuric acid was added to terminate the reaction and an absorbance at 450 nm was measured by a calorimeter ("BEP-II ", product of Behringwerke AG/Germany) with the absorbance at 650 nm as a control.
In a similar manner to Example 3, suppressive effects of Peptides (I), (VII) to (XV) on anti-KLH antibody production in mice were studied.

[2] = test system: anti-OVA antibody production; assay: Suppressive effect on anti-OVA antibody production in mice (ELISA of serum IgG); assay type: in vivo, mouse (Balb/c); parameters: Anti OVA Ig-G antibody titer: dose or concentration left out as unconfirmed; conditions: for anti-OVA antibody production compared with the non-administered group and Peptide (I) administered group / anti-OVA antibody production compared with Peptide (I) administered group: Example 8
Protocol: Day 5 and day 3 prior to the antigen administration, Peptide (I) composed of 9 amino acid residues as indicated by Sequence ID No. 1 in the Sequence Listing of the present invention and a synthetic peptide 15 composed of 15 amino acid residues derived from clone 17.2 TcR, which peptide had been reported by Mohapatra et al. as described above, 100 g each, were dissolved in 200 of physiological saline and each solution thus obtained was subcutaneously administered to 9-week-old Balb/c mice. As a control, a non-administered group to which the same amount of physiological saline was administered was employed. In 200 l of physiological saline, 100 g of OVA (Sigma Chemical Co.) were dissolved, followed by subcutaneous administration. Blood was collected on day 21 after antigen administration and an antibody titer was measured by the method described below.
OVA was diluted to 10 µg/ml with phosphate buffered saline (PBS) and 50 l portions of the solution were poured in a 96-well microplate. The coating operation was conducted overnight at […]. The microplate was then washed three times with a 0.05% Tween®-20-containing PBS (T-PBS). 200 l portions of 0.5% casein-containing tris buffered physiological saline (casein TBS) were poured in each well and the microplate was allowed to stand at room temperature for one hour. The microplate was then washed three times with T-PBS. After the serum of the blood collected from the mice was diluted to 1/200 with 0.5% casein TBS, 50 l portions of the diluted serum were poured in each well and the plate was allowed to stand for one hour (primary reaction).
After the completion of the primary reaction, the microplate was washed three times with T-PBS. Fifty l portions of anti-mouse IgG-peroxidase-labeled antibody (TAGO Co.) diluted to 1/4000 with 0.5% casein TBS were poured in each well, followed by reaction at room temperature for one hour (secondary reaction). After the completion of the secondary reaction, the plate was washed three times again. Fifty l portions of a substrate liquid/chromogen (chromogen substrate: Behringwerke AG) were poured in each well, followed by reaction at room temperature for 30 minutes. After the completion of the reaction, 0.5N diluted sulfuric acid was added to terminate the reaction and an absorbance at 450 nm was measured by a calorimeter ("BEP-II", product of Behringwerke AG/Germany) with an absorbance at 650 nm as a control.
In a similar manner to Example 2, the suppressive effects of Peptides (I), (VII) to (XIV) on the anti-OVA antibody production in mice were measured.

[3] = test system: EAE model mice; assay: Onset suppressive effect on EAE model mice; assay type: in vivo, mouse (SJL)
Protocol: As an antigen, guinea pig spinal chord homogenate was employed. The guinea pig spinal chord homogenate was diluted with PBS to be 6.6 mg/ml, followed by the addition of the equivalent amount of Freunds complete adjuvant. The resulting mixture was formed into an emulsion by an ultrasonic sonicator. The resulting emulsion was administered to two areas under the lateral skin in a total amount of 300 μl. Day 5 and day 3 prior to antigen administration, and 5 days a week for 4 weeks after antigen administration, the solution of Peptide (I) dissolved in 100 μl physiological saline was subcutaneously administered to a 14-week old SJL mouse. Incidentally, in order to increase an onset ratio, […] of pertussis toxin (PTX) were intravenously administered as an enhancer on the day of antigen administration and two days after antigen administration. Observation of the onset was performed from day 14 to day 28 after primary antigen administration. The onset was scored based on the following standard criteria [Pettinelli, C. B., Fritz, D. E., and McFarlin, D. E. J. Immunl., 129, No. 3, 1024-1028 (1982)]. In Table 3, values of average score+standard deviation (SD) in each administration group on day 22, day 25 and day 28 after primary antigen administration are shown.
Score 1: Slight paralysis of hind leg with tail weakness
Score 2: Moderate paralysis of hind leg with tail weakness
Score 3: Total paralysis of hind leg
Score 4: Slight paralysis of forward leg with total paralysis of hind leg
Score 5: Total paralysis of all leg
Score 6: Death from paralysis

With “AKLTFGAG [Peptide (XI), Ala-Lys-Leu-Thr-Phe-Gly-Ala-Gly]” the “anti-KLH antibody production compared with the non-administered group and Peptide (I) administered group” value [1] was “significantly suppressed” and the “anti-OVA antibody production compared with the non-administered group and Peptide (I) administered group” value [2] was “significantly suppressed”.
With “AKATFGKG [Peptide (XIII), Ala-Lys-Ala-Thr-Phe-Gly-Lys-Gly]” the “anti-KLH antibody production compared with Peptide (I) administered group” value [1] was “not suppressed” and the “anti-OVA antibody production compared with Peptide (I) administered group” value [2] was “not suppressed”.
In the case of “AKLTFGKA [Peptide (XII), Ala-Lys-Leu-Thr-Phe-Gly-Lys-Ala]”, the “anti-KLH antibody production compared with Peptide (I) administered group” value [1] was “not suppressed”.
With “AALTFGKG [Peptide (VIII), Ala-Ala-Leu-Thr-Phe-Gly-Lys-Gly]” the “anti-KLH antibody production compared with Peptide (I) administered group” value [1] was “not suppressed”.
With “KLTFGKG [Peptide (XV), Lys-Leu-Thr-Phe-Gly-Lys-Gly]” the “anti-KLH antibody production compared with Peptide (I) administered group” value [1] was “not suppressed”.
In the case of “AKLTAGKG [Peptide (XIV), Ala-Lys-Leu-Thr-Ala-Gly-Lys-Gly]”, the “anti-KLH antibody production compared with Peptide (I) administered group” value [1] was “not suppressed” and the “anti-OVA antibody production compared with Peptide (I) administered group” value [2] was “not suppressed”.
With “AKLTFGKGT [Peptide (I), Ala-Lys-Leu-Thr-Phe-Gly-Lys-Gly-Thr]” the “EAE average score ± SD” value ([3]; 1 μg/body s.c., Day 22) was 1.6 ± 1.8 score, the “EAE average score ± SD” value ([3]; 1 μg/body s.c., Day 25) was 0.9 ± 1.1 score and the “EAE average score ± SD” value ([3]; 1 μg/body s.c., Day 28) was 1.8 ± 1.9 score. The “EAE average score ± SD” value ([3]; 5 μg/body s.c., Day 22) was 0.4 ± 0.7 score, the “EAE average score ± SD” value ([3]; 5 μg/body s.c., Day 25) was 1.0 ± 1.1 score and the “EAE average score ± SD” value ([3]; 5 μg/body s.c., Day 28) was 0.7 ± 0.8 score. For the same substance, the “onset of EAE compared with physiological saline group” value ([3]; 5 μg/body, day 25 and day 28, significant difference of 5%) was “suppressed”, the “EAE average score ± SD” value ([3]; 25 μg/body s.c., Day 22 after primary antigen administration) was 0.3 ± 0.4 score and the “EAE average score ± SD” value ([3]; 25 μg/body s.c., Day 25) was 0.1 ± 0.3 score. The “EAE average score ± SD” value ([3]; 25 μg/body s.c., Day 28) was 0.0 ± 0.0 score, the “onset of EAE compared with physiological saline group” value ([3]; 25 μg/body, from day 22 significant difference of 5%, from day 25 of 1%) was “suppressed” and the “onset of EAE” value ([3]; administration of Peptide (I), overall) was “suppressed”. For the same substance, the “Anti OVA Ig-G antibody titer” value ([2]; Example 2, Table 1, peptide s.c. day 5 and day 3 prior to OVA, blood day 21, 8 mice per group) was 8.8 ± 10.8 unit and the “anti-OVA antibody production compared with the non-administered group” value ([2]; Example 2, 8 mice per group) was “significantly suppressed”.
“AKLAFGKG [Peptide (IX), Ala-Lys-Leu-Ala-Phe-Gly-Lys-Gly]” was tested, and the “anti-KLH antibody production compared with the non-administered group and Peptide (I) administered group” value [1] was “significantly suppressed” and the “anti-OVA antibody production compared with the non-administered group and Peptide (I) administered group” value [2] was “significantly suppressed”.
In the case of “AKLTFGKG [Peptide (VII), Ala-Lys-Leu-Thr-Phe-Gly-Lys-Gly]”, the “anti-KLH antibody production compared with the non-administered group and Peptide (I) administered group” value [1] was “significantly suppressed” and the “anti-OVA antibody production compared with the non-administered group and Peptide (I) administered group” value [2] was “significantly suppressed”.
For “AKLTFAKG [Peptide (X), Ala-Lys-Leu-Thr-Phe-Ala-Lys-Gly]”, the “anti-KLH antibody production compared with the non-administered group and Peptide (I) administered group” value [1] was “significantly suppressed”.
